7 molecules from patent US10246463B2, “Hypoxia-inducible factor 1 (HIF-1) inhibitors” (The United States of America, as represented by the …, priority 2015, dated 2019) can be followed below.

In brackets after ≈: the same amount, converted by molar mass. Several values for one entry are separate records, joined by “and”; a condition that tells them apart may be missing. Equal entries are not always repeated. Where two headings read alike, the source gives them in different places.

Data set [1] deals with T1, p300 (CH1) / HIF-1α (C-TAD) interaction (Homo sapiens, UniProt Q09472+Q16665).
T1 construct: GST-p300-CH1 (aa 323-423); synthetic biotinylated HIF-1αC-TAD (aa 786-826; Peptide Protein Research Ltd., Fareham, UK)
T1 sequence (Q09472 323-423): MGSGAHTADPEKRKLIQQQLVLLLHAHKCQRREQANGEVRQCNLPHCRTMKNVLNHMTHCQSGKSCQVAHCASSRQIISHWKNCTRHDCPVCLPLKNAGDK
T1 sequence (Q16665 786-826): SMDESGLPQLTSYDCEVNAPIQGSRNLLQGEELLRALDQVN
As to the kind of experiment: p300 CH1 / HIF-1α C-TAD binding assay (DELFIA, europium anti-GST). As to conditions: for IC50: dose-response format of the screening assay. The procedure: Binding of soluble CH1 to the immobilized C-TAD was measured by the fluorescence of a europium-tagged anti-GST antibody.
Bound GST-CH1 was detected using a europium-labeled antibody to GST (PerkinElmer Life Sciences). […] Plates were washed four times with TBST (50 mM Tris, 150 mM NaCl, 0.05% Tween 20, pH 8.0) buffer. […] After 2 h, plates were washed four times in TBST. DELFIA enhancement solution (PerkinElmer Life Sciences) was added and plates were placed on a rocker for 30 min, before reading with a Victor3 plate reader (PerkinElmer Life Sciences) or a Pherastar Plate Reader (BMG Labtech), using the europium setting under time-resolved fluorescence. Values were corrected for background and expressed as a percentage of controls (DMSO) to provide the percentage of CH1 binding.

A further data set deals with HCT116 cells. Briefly: CCK-8 cytotoxicity in HCT116 cells under hypoxic conditions. It is filed as cell-based. The note with it: 18 h treatment, hypoxic conditions (0.5% O2), FIG. 8. The source says:
Results are presented as the average cell viability number (% hypoxic control) of triplicate experiments ±S.E.M. (n=3-4).

Data set [2] in a line: pKa determination by UV-Vis analysis at varied pH. It is filed as physicochemical. As to conditions: aqueous buffers at varied pH, 0.1% DMSO, read-out: pKa of the titratable proton. As for the experimental part: The cuvettes were allowed to equilibrate for 1 h before a UV-Vis curve was obtained. The pKa for 1 was determined by fitting Δ abs at 394 and 440 nm to a polynomial curve, as described previously (Yapici et al., J. Am. Chem. Soc. 2015, 137:1073-1080).

In data set [3] the test system is 456 protein kinase enzymes. As to the kind of experiment: commercial panel of 456 protein kinase enzymes (DiscoverRx). It is filed as binding. The source says:
(§1) In an effort to evaluate a broader range of potential activities of interest, compound 1 was screened against a commercial panel of 456 protein kinase enzymes and 32 bromodomain proteins (DiscoverRx, San Diego, Calif.), and it had no activity against any of these targets.

The next data set deals with 32 bromodomain proteins. As to the kind of experiment: commercial panel of 32 bromodomain proteins (DiscoverRx). It is filed as binding.
Description: as §1

Data set [4] relates to HIF-1α activation in HCT116 cells. As to the kind of experiment: HRE luciferase reporter of HIF-1α activation in HCT116 cells under anoxic conditions. It is filed as cell-based. The note with it: FIG. 7. As for the experimental part: Activation was monitored via a hypoxia response element (HRE) luciferase signal. When HIF-1α is activated, it results in an increased HRE luciferase signal. […] Data were analyzed using an ordinary one-way ANOVA with Dunnett's multiple comparisons test (reference group: DMSO.H). * P≤0.05, ** P≤0.01, *** P≤0.0001.

In data set [5] the test system is P. falciparum D6 (chloroquine sensitive). As to the kind of experiment: Antimalarial activity, plasmodial LDH assay, D6 strain. It is filed as cell-based. The note with it: for IC50: Plasmodium falciparum, read-out: IC50 against D6. The procedure: (§2) The antimalarial activity was determined against chloroquine sensitive (D6) and chloroquine resistant (W2) strains of P. falciparum by measuring plasmodial LDH (lactate dehydrogenase) activity according to the procedure of Makler and Hinrichs (Am. J. Trop. Med. Hyg. 1993, 48:205). A suspension of red blood cells infected with D6 or W2 strain of P. falciparum (200 μL, with 2% parasitemia and 2% hematocrit in RPMI 1640 medium supplemented with 10% human serum and 60 μg/mL Amikacin) was added to the wells of a 96-well plate containing 10 μL of serially diluted samples (plant extracts, column fractions or pure compounds). The plate was incubated at 37° C., for 72 h in a modular incubation chamber with 90% N2, 5% O2, and 5% CO2. Parasitic LDH activity was determined by mixing 20 μL of the incubation mixture with 100 μL of the Malstat reagent and incubating at room temperature for 30 min Twenty microliters of a 1:1 mixture of NBT/PES (nitro blue tetrazolium/phenazine ethosulfate) (Sigma, St. Louis, Mo.) was then added and the plate was further incubated in the dark for 1 h. The reaction was stopped by adding 100 μL of a 5% acetic acid solution and the absorbance was read at 650 nm. Artemisinin and chloroquine were included as the drug controls. IC50 values were computed from the dose response curves of growth inhibition.

The next data set relates to NCI-60 cell line. As to the kind of experiment: NCI-60 cell line anticancer screen. It is filed as cell-based. The note with it: standard initial concentration of 40 μM.
The subject of data set [6] is P. falciparum W2 (chloroquine resistant). As to the kind of experiment: Antimalarial activity, plasmodial LDH assay, W2 strain. It is filed as cell-based. As to conditions: for IC50: Plasmodium falciparum, read-out: IC50 against W2. The procedure:
as §2

Another data set can be described thus: Stability in NMR solvent. It is filed as physicochemical.
Where [7] appears, read: read-out: IC50, blocking binding of soluble CH1 to immobilized C-TAD.

With `OC1(c2ccccc2)N=C2N=CC=C3c4ccccc4N=C1N32` (stereo not drawn) [EA-1], the “inhibition of CH1 (p300)/C-TAD (HIF-1α) interaction” value in data set [1] (even at high dose) was “no inhibition”.

On to `O=C(O)c1ccc(C2(O)N=C3N=CC=C4c5ccccc5N=C2N43)cc1` (stereo not drawn) [EA-2], for which, in [1] (read-out: IC50, CH1 (p300)/C-TAD (HIF-1α) interaction (converted)), the IC50 was roughly 290 µM.

Turning to `COc1ccc(C2(O)N=C3N=CC=C4c5ccccc5N=C2N43)cc1` (stereo not drawn) [Eudistidine A, eudistidine A], the “CCK-8 cytotoxicity/growth inhibitory activity” value in the data set on HCT116 cells is given as “only modest cytotoxicity/growth inhibitory activity”. In addition, in data set [2], the pKa worked out at 5.1 ± 0.1. Besides, the “inhibition of HIF-1α binding to p300, comparison of salt forms and natural/synthetic material” value in data set [1] (FIGS. 5A-5E, 6A-6C, listed as natural eudistidine A, free base) is listed as “similarly inhibit”. Further, the IC50 in [1] (setting [7]) is ~75 µM and 75 µM; in data set [5] (D6, growth inhibition, 72 h), 0.77 µg/mL (≈ 2.33 µM); in data set [6] (W2, growth inhibition, 72 h), 0.58 µg/mL (≈ 1.76 µM). Moreover, the “activity against 456 protein kinase enzymes” value in data set [3] is reported as “no activity”. Also, the “activity against 32 bromodomain proteins” value with 32 bromodomain proteins is reported as “no activity”. In addition, the “blocking of HIF-1α activation (HRE luciferase signal)” value in data set [4] is given as “block HIF-1α activation”. For the same molecule, the “% growth of D6 strain of P. falciparum” value is listed as 72% in [5] (528.89 ng/mL), 6% in data set [5] (1586.67 ng/mL) and 2% in data set [5] (4760 ng/mL). In the data set on NCI-60 cell line, the “cytotoxic activity in NCI-60 screen” value is listed as “no significant cytotoxic activity”. Moreover, the results for the “% growth of W2 strain of P. falciparum” value in data set [6] (528.89 ng/mL), in data set [6] (1586.67 ng/mL) and in data set [6] (4760 ng/mL) were 55%, 1% and 1%, respectively.

Turning to `O=c1nc2nccc3c4ccccc4nc1N23` [Eudistidine B, eudistidine B], the “inhibition of CH1 (p300)/C-TAD (HIF-1α) interaction” value in data set [1] (at a high dose of 250 μM) is given as “no inhibition”.

Consider `COc1ccc(C2(c3nc(N)[nH]c3-c3ccc(O)cc3)N=C3N=CC=C4c5ccccc5N=C2N43)cc1` (stereo not drawn) [Eudistidine C, eudistidine C], for which the IC50 in data set [1] (setting [7]) was roughly 75 µM; in data set [5] (D6, growth inhibition, 72 h) it was 1.7 µg/mL (≈ 3.49 µM); in data set [6] (W2, growth inhibition, 72 h) it was 0.9 µg/mL (≈ 1.85 µM). Moreover, in the data set “Stability in NMR solvent”, the “stability in DMSO-d6” value is on record as “somewhat unstable”. For the same molecule, the “% growth of D6 strain of P. falciparum” value in data set [5] (528.89 ng/mL) is on record as 91%; in data set [5] (1586.67 ng/mL), 56%; in data set [5] (4760 ng/mL), 9%. The “% growth of W2 strain of P. falciparum” value in data set [6] (528.89 ng/mL) amounted to 75%; in data set [6] (1586.67 ng/mL), 22%; in [6] (4760 ng/mL), 6%.

Consider `C[C@@H]1CC[C@H]2[C@@H](C)C(=O)O[C@@H]3O[C@@]4(C)CC[C@@H]1[C@]32OO4` [artemisinin, reference compound], for which the IC50 is 0.0072 µg/mL (≈ 0.0255 µM) in data set [5] (D6, growth inhibition, 72 h) and 0.0041 µg/mL (≈ 0.0145 µM) in data set [6] (W2, growth inhibition, 72 h).

Consider `CCN(CC)CCCC(C)Nc1ccnc2cc(Cl)ccc12` (stereo not drawn) [chloroquine, reference compound], for which the IC50 in [5] (D6, 72 h) was 0.0154 µg/mL (≈ 0.0481 µM); in [6] (W2, 72 h) it was 0.161 µg/mL (≈ 0.503 µM).
